Test results as given in the supplement of paper PMC10307832.

Tests used:
Test in all cases: relative viability (nuclei count vs DMSO), 5 days (fraction); higher = more cells survive
[1] = compound: CN(C)CC1=CC(=CC=C1)N=C(C2=CC=CC=C2)C3=C(NC4=C3C=CC(=C4)C(=O)N(C)C)O + CS(=O)(=O)CCNCc1ccc(-c2ccc3ncnc(Nc4ccc(OCc5cccc(F)c5)c(Cl)c4)c3c2)o1 [Lapatinib] (partner 2 µM)
Method in brief: (§1)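 Lung cancer cell lines in 1536-well plates got either a single drug or a fixed anchor-drug dose together with five library-drug doses (not always all listed) in √10 steps, by pin tool, on the day after seeding. Nuclei were counted after 5 days, and relative viability is the treated-to-vehicle ratio of nuclei counts. Values are medians of duplicate plates.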

[2] = compound: CN(C)CC1=CC(=CC=C1)N=C(C2=CC=CC=C2)C3=C(NC4=C3C=CC(=C4)C(=O)N(C)C)O + NC(=O)Nc1cc(-c2cccc(F)c2)sc1C(=O)N[C@H]1CCCNC1 [AZD7762] (partner 0.2 µM)
Method in brief: as §1

[3] = compound: CN(C)CC1=CC(=CC=C1)N=C(C2=CC=CC=C2)C3=C(NC4=C3C=CC(=C4)C(=O)N(C)C)O + Nc1ncn([C@H]2C[C@H](O)[C@@H](CO)O2)c(=O)n1 [Decitabine] (partner 2 µM)
Method in brief: as §1

[4] = compound: CN(C)CC1=CC(=CC=C1)N=C(C2=CC=CC=C2)C3=C(NC4=C3C=CC(=C4)C(=O)N(C)C)O + O=C(c1cc(Cc2n[nH]c(=O)c3ccccc23)ccc1F)N1CCN(C(=O)C2CC2)CC1 [Olaparib] (partner 8 µM)
Method in brief: as §1

| Cell Line | relative viability ([1]; first compound 0.08 µM) | relative viability ([1]; first compound 0.253 µM) | relative viability ([1]; first compound 0.8 µM) | relative viability ([1]; first compound 2.53 µM) | relative viability ([1]; first compound 8 µM) | relative viability ([2]; first compound 0.08 µM) | relative viability ([2]; first compound 0.253 µM) | relative viability ([2]; first compound 0.8 µM) | relative viability ([2]; first compound 2.53 µM) | relative viability ([2]; first compound 8 µM) | relative viability ([3]; first compound 0.08 µM) | relative viability ([3]; first compound 0.253 µM) | relative viability ([3]; first compound 0.8 µM) | relative viability ([3]; first compound 2.53 µM) | relative viability ([3]; first compound 8 µM) | relative viability ([4]; first compound 0.08 µM) | relative viability ([4]; first compound 0.253 µM) | relative viability ([4]; first compound 0.8 µM) | relative viability ([4]; first compound 2.53 µM) | relative viability ([4]; first compound 8 µM) |
| --- | --- | --- | --- | --- | --- | --- | --- | --- | --- | --- | --- | --- | --- | --- | --- | --- | --- | --- | --- | --- |
| HOP-62 | 1.03 | 1.11 | 1.14 | 1.05 | 0.946 | 0.505 | 0.566 | 0.496 | 0.693 | 0.673 | 0.21 | 0.282 | 0.195 | 0.206 | 0.262 | 0.373 | 0.327 | 0.361 | 0.251 | 0.504 |
| LC-2-ad | 1.03 | 0.893 | 0.879 | 0.876 | 0.981 | 0.842 | 0.819 | 0.812 | 0.829 | 0.867 | 0.694 | 0.848 | 0.747 | 0.841 | 0.782 | 0.663 | 0.771 | 0.729 | 0.723 | 0.827 |
| LCLC-97TM1 | 1.14 | 1.02 | 1.13 | 1.37 | 0.574 | 0.312 | 0.328 | 0.241 | 0.281 | 0.281 | 0.271 | 0.261 | 0.225 | 0.219 | 0.205 | 0.485 | 0.392 | 0.442 | 0.391 | 0.433 |
| LK-2 | 1.05 | 0.97 | 0.898 | 0.841 | 0.637 | 0.457 | 0.416 | 0.426 | 0.493 | 0.341 | 0.306 | 0.375 | 0.276 | 0.328 | 0.286 | 0.901 | 0.653 | 0.572 | 0.679 | 0.489 |
| LOU-NH91 | 0.721 | 0.836 | 0.75 | 0.743 | 0.697 | 0.762 | 0.801 | 0.713 | 0.719 | 0.703 | 0.781 | 0.822 | 0.757 | 0.803 | 0.818 | 0.931 | 0.867 | 0.817 | 0.906 | 0.89 |
| LU99A | 1.06 | 1 | 1.01 | 0.922 | 0.756 | 0.45 | 0.335 | 0.337 | 0.24 | 0.299 | 0.925 | 0.79 | 0.885 | 0.927 | 0.673 | 0.263 | 0.331 | 0.254 | 0.264 | 0.247 |
| LXF-289 | 0.888 | 0.887 | 0.893 | 0.86 | 0.815 | 1.12 | 1.05 | 1.11 | 0.894 | 1.08 | 0.343 | 0.368 | 0.366 | 0.384 | 0.374 | 1.11 | 1.03 | 1.03 | 0.993 | 1.03 |
| NCI-H23 | 1.39 | 1.26 | 1.03 | 0.984 | 0.886 |  | 0.243 | 0.255 | 0.324 | 0.319 |  | 0.332 | 0.303 | 0.343 | 0.346 |  | 0.284 | 0.365 | 0.316 | 0.345 |
| NCI-H322M | 0.612 | 0.599 | 0.54 | 0.564 | 0.575 | 0.53 | 0.599 | 0.53 | 0.448 | 0.588 | 0.598 | 0.719 | 0.644 | 0.652 | 0.567 | 0.68 | 0.753 | 0.679 | 0.645 | 0.661 |
| NCI-H358 | 0.46 | 0.347 | 0.468 | 0.425 | 0.413 | 0.635 | 0.463 | 0.419 | 0.471 | 0.485 | 0.198 | 0.214 | 0.212 | 0.214 | 0.236 | 0.598 | 0.661 | 0.546 | 0.527 | 0.528 |
| NCI-H460 | 1.1 | 0.967 | 1.04 | 0.776 | 0.741 | 0.667 | 0.511 | 0.636 |  | 0.664 | 0.449 | 0.491 | 0.503 | 0.456 | 0.471 | 0.46 | 0.447 | 0.433 |  | 0.428 |
| NCI-H596 | 1.12 | 1.32 | 0.971 | 1.05 | 1.13 | 1.22 | 1.29 | 0.979 | 1.06 | 0.987 | 0.919 | 1.05 | 0.967 | 1.03 | 0.979 | 0.692 | 0.718 | 0.695 | 0.69 | 0.861 |
| NCI-H647 | 1.15 | 1.03 | 0.944 | 0.957 | 0.603 | 0.513 | 0.483 | 0.463 | 0.48 | 0.445 | 0.414 | 0.477 | 0.423 | 0.438 | 0.488 | 0.386 | 0.579 | 0.523 | 0.575 | 0.305 |
| NCI-H650 | 1.02 | 1.12 | 1.07 | 0.706 | 0.755 | 1.4 | 0.938 | 1.16 | 0.897 | 0.855 | 0.364 | 0.408 | 0.335 | 0.33 | 0.371 | 0.418 | 0.395 | 0.448 | 0.359 | 0.406 |
| NCI-H727 | 0.7 | 0.855 | 0.834 | 0.734 | 0.665 |  | 0.546 | 0.577 | 0.867 | 0.583 |  | 0.817 | 0.841 | 1.09 | 0.864 |  | 0.697 | 0.672 | 0.672 | 0.86 |
